The record followed here is patent publication EP1953147A1, “HETEROCYCLIC COMPOUND AND MEDICINAL APPLICATION THEREOF” (priority 2005, dated 2007).

Where a name gives a salt, the structure may show the parent alone.

In the assay the test system is ΔG/SEAP/HCV E1E2. Nature of the assay: Effect of test substance on cell infection with HCV pseudotype virus (SEAP reporter assay in HepG2 cells). Particulars: Hepatitis C virus. It counts as cell-based.
On to `Cc1cc(C)cc(-c2nn(-c3cc(N4CC[C@H](O)C4)ccc3C(F)(F)F)c(=O)c3c2CC(C)N3)c1` (stereo partly drawn) [Example 1-33, 4-(3,5-dimethyl-phenyl)-6-[5-((S)-3-hydroxy-pyrrolidin-1-yl)-2-trifluoromethyl-phenyl]-2-methyl-1,2,3,6-tetrahydro-pyrrolo[2,3-d]pyridazin-7-one], for which the concentration for half-maximal inhibition (IC50) (usually the concentration needed to halve the response being measured) is < 100 nM.

The molecule `COc1cc(OC)cc(-c2nn(-c3cc(N4CC[C@H](O)C4)ccc3C(F)(F)F)c(=O)c3c2CCN3CC(=O)NCCCN2CCN(CCCNC(C)=O)CC2)c1` [Example 56, N-{3-[4-(3-acetylamino-propyl)-piperazin-1-yl]-propyl}-2-{4-(3,5-dimethoxy-phenyl)-6-[5-((S)-3-hydroxy-pyrrolidin-1-yl)-2-trifluoromethyl-phenyl]-7-oxo-2,3,6,7-tetrahydro-pyrrolo[2,3-d]pyridazin-1-yl}-acetamide] displayed an IC50 of 100 to 10000 nM.

`CCOC(=O)N1CCc2c(-c3cc(O)cc(O)c3)nn(-c3cc(N4CC[C@H](O)C4)ccc3C(F)(F)F)c(=O)c21` [Example 61, 4-(3,5-dihydroxy-phenyl)-6-[5-((S)-3-hydroxy-pyrrolidin-1-yl)-2-trifluoromethyl-phenyl]-7-oxo-2,3,6,7-tetrahydro-pyrrolo[2,3-d]pyridazine-1-carboxylic acid ethyl ester] returned an IC50 of 100 to 10000 nM.

In the case of `COc1cc(OC)cc(-c2nn(-c3cc(NCCC(N)=O)ccc3C(F)(F)F)c(=O)c3c2CCC3)c1` [Example 142, 3-{3-[4-(3,5-dimethoxy-phenyl)-1-oxo-1,5,6,7-tetrahydro-cyclopenta[d]pyridazin-2-yl]-4-trifluoromethyl-phenylamino}-propionamide], the half-inhibitory concentration (IC50) is < 100 nM.

Take `COc1cc(OC)cc(-c2nn(-c3cc(NCCNS(C)(=O)=O)ccc3C(F)(F)F)c(=O)c3c2CCC3)c1` [Example 137, N-(2-{3-[4-(3,5-dimethoxy-phenyl)-1-oxo-1,5,6,7-tetrahydro-cyclopenta[d]pyridazin-2-yl]-4-trifluoromethyl-phenylamino}-ethyl)-methanesulfonamide]: the IC50 is < 100 nM.

For the molecule `O=c1c2c(c(-c3cccc(Cl)c3)nn1-c1cc(N3CC[C@H](O)C3)ccc1C(F)(F)F)CCC2` [Example 72, 4-(3-chloro-phenyl)-2-[5-((S)-3-hydroxy-pyrrolidin-1-yl)-2-trifluoromethyl-phenyl]-2,5,6,7-tetrahydro-cyclopenta[d]pyridazin-1-one], the 50% inhibitory concentration (IC50) was < 100 nM.

For `COc1cc(C)cc(-c2nn(-c3cc(N4CC[C@@H](O)C4)ccc3C(F)(F)F)c(=O)c3c2CCN3)c1` [Example 22, 6-[5-((R)-3-hydroxy-pyrrolidin-1-yl)-2-trifluoromethyl-phenyl]-4-(3-methoxy-5-methyl-phenyl)-1,2,3,6-tetrahydro-pyrrolo[2,3-d]pyridazin-7-one], the half-maximal inhibitory concentration (IC50) was < 100 nM.

Turning to `COc1cc(OC)cc(-c2nn(-c3cc(NCCN(C)C)ccc3C(F)(F)F)c(=O)c3c2CCC3)c1` [Example 116, 4-(3,5-dimethoxy-phenyl)-2-[5-(2-dimethylamino-ethylamino)-2-trifluoromethyl-phenyl]-2,5,6,7-tetrahydro-cyclopenta[d]pyridazin-1-one], the IC50 was < 100 nM.

Turning to `COC(=O)CNc1ccc(C(F)(F)F)c(-n2nc(-c3cc(OC)cc(OC)c3)c3c(c2=O)CCC3)c1` [Example 126, {3-[4-(3,5-dimethoxy-phenyl)-1-oxo-1,5,6,7-tetrahydro-cyclopenta[d]pyridazin-2-yl]-4-trifluoromethyl-phenylamino}-acetic acid methyl ester], the IC50 was < 100 nM.

Take `COc1cc(OC)cc(-c2nn(-c3cc(N4CC[C@H](O)C4)ccc3S(C)(=O)=O)c(=O)c3c2CCC3)c1` [Example 38, 4-(3,5-dimethoxy-phenyl)-2-[5-((S)-3-hydroxy-pyrrolidin-1-yl)-2-methanesulfonyl-phenyl]-2,5,6,7-tetrahydro-cyclopenta[d]pyridazin-1-one]: the 50% inhibitory concentration (IC50) is < 100 nM.

For `COc1cc(OC)cc(-c2nn(-c3cc(N4CC[C@H](O)C4)ccc3C(F)(F)F)c(=O)c3c2CCN3CC#N)c1` [Example 48, {4-(3,5-dimethoxy-phenyl)-6-[5-((S)-3-hydroxy-pyrrolidin-1-yl)-2-trifluoromethyl-phenyl]-7-oxo-2,3,6,7-tetrahydro-pyrrolo[2,3-d]pyridazin-1-yl}-acetonitrile], the half-maximal inhibitory concentration (IC50) is < 100 nM.

Consider `COc1cc(OC)cc(-c2nn(-c3cc(NCCCN)ccc3C(F)(F)F)c(=O)c3c2CCC3)c1` [Example 127, 2-[5-(3-amino-propylamino)-2-trifluoromethylphenyl]-4-(3,5-dimethoxy-phenyl)-2,5,6,7-tetrahydro-cyclopenta[d]pyridazin-1-one hydrochloride], for which the concentration for half-maximal inhibition (IC50) is < 100 nM.

`COC(=O)c1ccc(C(F)(F)F)c(-n2nc(-c3cc(OC)cc(OC)c3)c3c(c2=O)CCC3)c1` [Example 1-9, methyl 3-[4-(3,5-dimethoxy-phenyl)-1-oxo-1,5,6,7-tetrahydro-cyclopenta[d]pyridazin-2-yl]-4-trifluoromethyl-benzoate]: the IC50 is < 100 nM.

For the molecule `COc1cc(OC)cc(-c2nn(-c3cc(NCCCC(N)=O)ccc3C(F)(F)F)c(=O)c3c2CCC3)c1` [Example 152, 4-{3-[4-(3,5-dimethoxy-phenyl)-1-oxo-1,5,6,7-tetrahydro-cyclopenta[d]pyridazin-2-yl]-4-trifluoromethyl-phenylamino}-butyramide], the half-maximal inhibitory concentration (IC50) was < 100 nM.

Consider `COc1cccc(-c2nn(-c3cc(N4CC[C@H](O)C4)ccc3C(F)(F)F)c(=O)c3c2CCN3)c1` [Example 43, 6-[5-((S)-3-hydroxy-pyrrolidin-1-yl)-2-trifluoromethyl-phenyl]-4-(3-methoxy-phenyl)-1,2,3,6-tetrahydro-pyrrolo[2,3-d]pyridazin-7-one], for which the IC50 is < 100 nM.

For the molecule `COc1cc(C)cc(-c2nn(-c3cc(N4CC[C@H](O)C4)ccc3C(F)(F)F)c(=O)c3c2CC(C)N3)c1` (stereo partly drawn) [Example 16, 6-[5-((S)-3-hydroxy-pyrrolidin-1-yl)-2-trifluoromethyl-phenyl]-4-(3-methoxy-5-methyl-phenyl)-2-methyl-1,2,3,6-tetrahydro-pyrrolo[2,3-d]pyridazin-7-one], the IC50 is < 100 nM.

With `COc1cc(OC)cc(-c2nn(-c3cc(N4CCC4)ccc3C(F)(F)F)c(=O)c3c2CCC3)c1` [Example 71, 2-(5-azetidin-1-yl-2-trifluoromethyl-phenyl)-4-(3,5-dimethoxy-phenyl)-2,5,6,7-tetrahydro-cyclopenta[d]pyridazin-1-one], the IC50 is < 100 nM.

Consider `COc1cc(OC)cc(-c2nn(-c3cc(N4CC[C@H](O)C4)ccc3C(F)(F)F)c(=O)c3c2CCC3)c1` [Example 9, 4-(3,5-dimethoxy-phenyl)-2-[5-((S)-3-hydroxy-pyrrolidin-1-yl)-2-trifluoromethyl-phenyl]-2,5,6,7-tetrahydro-cyclopenta[d]pyridazin-1-one], for which the concentration for half-maximal inhibition (IC50) was < 100 nM.

As to `COc1cc(C)cc(-c2nn(-c3cc(-c4cccnn4)ccc3C(F)(F)F)c(=O)c3c2CCC3)c1` [Example 1-4, 4-(3-methoxy-5-methyl-phenyl)-2-[5-(pyridazin-3-yl)-2-trifluoromethyl-phenyl]-2,5,6,7-tetrahydro-cyclopenta[d]pyridazin-1-one], the IC50 is < 100 nM.

In the case of `Cc1cccc(-c2nn(-c3cc(N4CC[C@H](O)C4)ccc3C(F)(F)F)c(=O)c3c2CCC3)c1` [Example 64, 2-[5-((S)-3-hydroxy-pyrrolidin-1-yl)-2-trifluoromethyl-phenyl]-4-m-tolyl-2,5,6,7-tetrahydro-cyclopenta[d]pyridazin-1-one], the IC50 is < 100 nM.

In the case of `O=c1c2c(c(C3=CCCCC3)nn1-c1cc(N3CC[C@H](O)C3)ccc1C(F)(F)F)CCC2` [Example 113, 4-cyclohex-1-enyl-2-[5-((S)-3-hydroxy-pyrrolidin-1-yl)-2-trifluoromethyl-phenyl]-2,5,6,7-tetrahydro-cyclopenta[d]pyridazin-1-one], the IC50 lay in the range of 100 to 10000 nM.

For the molecule `CCCCCCNC(=O)CN1CCc2c(-c3cc(OC)cc(OC)c3)nn(-c3cc(N4CC[C@H](O)C4)ccc3C(F)(F)F)c(=O)c21` [Example 35, 2-{4-(3,5-dimethoxy-phenyl)-6-[5-((S)-3-hydroxy-pyrrolidin-1-yl)-2-trifluoromethyl-phenyl]-7-oxo-2,3,6,7-tetrahydro-pyrrolo[2,3-d]pyridazin-1-yl}-N-hexyl-acetamide], the half-maximal inhibitory concentration (IC50) is < 100 nM.

As for `O=c1c2c(c(-c3ccsc3)nn1-c1cc(N3CC[C@H](O)C3)ccc1C(F)(F)F)CCC2` [Example 158, 2-[5-((S)-3-hydroxy-pyrrolidin-1-yl)-2-trifluoromethyl-phenyl]-4-thiophen-3-yl-2,5,6,7-tetrahydro-cyclopenta[d]pyridazin-1-one], the IC50 is 100 to 10000 nM.

`COc1cc(OC)cc(-c2nn(-c3cc(NCCN(C)C(=O)OC(C)(C)C)ccc3C(F)(F)F)c(=O)c3c2CCC3)c1` [Example 156, (2-{3-[4-(3,5-dimethoxy-phenyl)-1-oxo-1,5,6,7-tetrahydro-cyclopenta[d]pyridazin-2-yl]-4-trifluoromethyl-phenylamino}-ethyl)-methyl-carbamic acid tert-butyl ester]: the IC50 was 100 to 10000 nM.

The molecule `COc1cc(OC)cc(-c2nn(-c3cc(N4CC[C@H](O)C4)ccc3F)c(=O)c3c2CCC3)c1` [Example 42, 4-(3,5-dimethoxy-phenyl)-2-[2-fluoro-5-((S)-3-hydroxy-pyrrolidin-1-yl)-phenyl]-2,5,6,7-tetrahydro-cyclopenta[d]pyridazin-1-one] returned an IC50 of 100 to 10000 nM.

On to `CC(=O)N[C@@H]1CCN(c2ccc(C(F)(F)F)c(-n3nc(-c4cc(C)cc(C)c4)c4c(c3=O)N(CC(N)=O)CC4)c2)C1` [Example 1-27, {6-[5-((R)-3-acetylamino-pyrrolidin-1-yl)-2-trifluoromethyl-phenyl]-4-(3,5-dimethyl-phenyl)-7-oxo-2,3,6,7-tetrahydro-pyrrolo[2,3-d]pyridazin-1-yl}-acetamide], for which the half-inhibitory concentration (IC50) was < 100 nM.

`COc1cc(OC)cc(-c2nn(-c3ccccc3C(F)(F)F)c(=O)c3c2CCC3)c1` [Example 107, 4-(3,5-dimethoxy-phenyl)-2-(2-trifluoromethylphenyl)-2,5,6,7-tetrahydro-cyclopenta[d]pyridazin-1-one]: the IC50 fell in the range of 100 to 10000 nM.
